Laboratory results: patent publication US6573218B1, “Fused-benzene derivatives useful as herbicides” (Ishihara Sangyo Kaisha, Ltd., priority 1998, dated 2003)

Legend:
Type in all cases: in vivo
[1] = tested on: barnyardgrass (Echinochloa crus-galli, ECHCG); test: Post-emerge greenhouse herbicide test; details: 14 days after application
From the text: (§1) A standard greenhouse herbicide activity screening system was used to evaluate the herbicidal efficacy and crop safety of these test compounds. Seven broadleaf weed species including redroot pigweed (Amaranthus retroflexus, AMARE), velvetleaf (Abutilon theophrasti, ABUTH), sicklepod (Cassia obtusifolia, CASOB), ivyleaf morningglory (Ipomoea hederacea, IPOHE), lambsquarters (Chenopodium album, CHEAL), common ragweed (Ambrosia artemisiifolia L., AMBEL), and cocklebur (Xanthium strumarium, XANST) were used as test species. Four grass weed species including green foxtail (Setaria viridis, SETVI), barnyardgrass (Echinochloa crus-galli, ECHCG), johnsongrass (Sorghum halepense, SORHA), and large crabgrass (Digitaria sanguinalis, DIGSA) were also used. In addition, three crop species, field corn (Zea mays L., var. Dekalb 527, CORN), soybean (Glycine max L., var. Pella 86, SOY), and upland rice (Ory0a sp., var.Tebonnet, RICE) were included.
(§2) All plants were grown in 10 cm square plastic pots which were filled with a sandy loam soil mix. For pre-emerge tests, seeds were planted one day prior to application of the test compounds. For post-emerge tests, seeds were planted 8-21 days prior to the test to allow emergence and good foliage development prior to application of the test substances. At the time of the post-emerge application, plants of all species were usually at the 2-3 leaf stage of development.
(§3) All test compounds were dissolved in acetone and applied to the test units in a volume of 187 l/ha. Test materials were applied at rates ranging from 15 g ai/ha to 1000 g ai/ha using a track sprayer equipped with a TJ8001E even flow flat fan spray nozzle. Plants were arranged on a shelf so that the top of the canopy (post-emerge) or top of the soil surface (pre-emerge) was 40-45 cm below the nozzle. Pressurized air was used to force the test solution through the nozzle as it was mechanically advanced over the top of all test plants/pots. This application simulates a typical commercial field herbicide application.
(§4) In the post-emerge test, a commercial non-ionic surfactant was also included (0.25% v/v) to enhance wetting of the leaf surfaces of target plants. Immediately after application, test units of the pre-emerge applications were watered at the soil surface to incorporate the test materials.
(§5) At 14 days after application of the test materials, phytotoxicity ratings were recorded. A rating scale of 0-100 was used as previously described in Research Methods in Weed Science, 2nd edition, B. Truelove, Ed., Southern Weed Science Society, Auburn University, Auburn, Ala., 1977. Briefly, “0” corresponds to no damage and “100” corresponds to complete death of all plants in the test unit. This scale was used both to determine efficacy against weed species and damage to crop species. Herbicide activity data for various compounds of this invention, which are shown by compound No. in Tables 1-14, are shown in Tables 16 and 17.

[2] = tested on: green foxtail (Setaria viridis, SETVI); test: Post-emerge greenhouse herbicide test; details: 14 days after application
From the text: as §1, §2, §3, §4, §5

[3] = tested on: ivyleaf morningglory (Ipomoea hederacea, IPOHE); test: Post-emerge greenhouse herbicide test; details: 14 days after application
From the text: as §1, §2, §3, §4, §5

[4] = tested on: lambsquarters (Chenopodium album, CHEAL); test: Post-emerge greenhouse herbicide test; details: 14 days after application
From the text: as §1, §2, §3, §4, §5

[5] = tested on: large crabgrass (Digitaria sanguinalis, DIGSA); test: Post-emerge greenhouse herbicide test; details: 14 days after application
From the text: as §1, §2, §3, §4, §5

[6] = tested on: redroot pigweed (Amaranthus retroflexus, AMARE); test: Post-emerge greenhouse herbicide test; details: 14 days after application
From the text: as §1, §2, §3, §4, §5

[7] = tested on: sicklepod (Cassia obtusifolia, CASOB); test: Post-emerge greenhouse herbicide test; details: 14 days after application
From the text: as §1, §2, §3, §4, §5

[8] = tested on: velvetleaf (Abutilon theophrasti, ABUTH); test: Post-emerge greenhouse herbicide test; details: 14 days after application
From the text: as §1, §2, §3, §4, §5

[9] = tested on: field corn (Zea mays L., var. Dekalb 527, CORN); test: Post-emerge greenhouse crop damage test
From the text: as §1, §2, §3, §4, §5

[10] = tested on: soybean (Glycine max L., var. Pella 86, SOY); test: Post-emerge greenhouse crop damage test
From the text: as §1, §2, §3, §4, §5

[11] = tested on: upland rice (Ory0a sp., var.Tebonnet, RICE); test: Post-emerge greenhouse crop damage test
From the text: as §1, §2, §3, §4, §5

[12] = tested on: barnyardgrass (Echinochloa crus-galli, ECHCG); test: Pre-emerge greenhouse herbicide test; details: 14 days after application, scale 0-100 (0 no damage, 100 complete death)
From the text: as §1, §2, §3, §4, §5

[13] = tested on: green foxtail (Setaria viridis, SETVI); test: Pre-emerge greenhouse herbicide test; details: 14 days after application, scale 0-100 (0 no damage, 100 complete death)
From the text: as §1, §2, §3, §4, §5

[14] = tested on: ivyleaf morningglory (Ipomoea hederacea, IPOHE); test: Pre-emerge greenhouse herbicide test; details: 14 days after application, scale 0-100 (0 no damage, 100 complete death)
From the text: as §1, §2, §3, §4, §5

[15] = tested on: johnsongrass (Sorghum halepense, SORHA); test: Pre-emerge greenhouse herbicide test; details: 250 g ai/ha, 14 days after application, scale 0-100 (0 no damage, 100 complete death)
From the text: as §1, §2, §3, §4, §5

[16] = tested on: lambsquarters (Chenopodium album, CHEAL); test: Pre-emerge greenhouse herbicide test; details: 14 days after application, scale 0-100 (0 no damage, 100 complete death)
From the text: as §1, §2, §3, §4, §5

[17] = tested on: large crabgrass (Digitaria sanguinalis, DIGSA); test: Pre-emerge greenhouse herbicide test; details: 14 days after application, scale 0-100 (0 no damage, 100 complete death)
From the text: as §1, §2, §3, §4, §5

[18] = tested on: redroot pigweed (Amaranthus retroflexus, AMARE); test: Pre-emerge greenhouse herbicide test; details: 14 days after application, scale 0-100 (0 no damage, 100 complete death)
From the text: as §1, §2, §3, §4, §5

[19] = tested on: sicklepod (Cassia obtusifolia, CASOB); test: Pre-emerge greenhouse herbicide test; details: 14 days after application, scale 0-100 (0 no damage, 100 complete death)
From the text: as §1, §2, §3, §4, §5

[20] = tested on: velvetleaf (Abutilon theophrasti, ABUTH); test: Pre-emerge greenhouse herbicide test; details: 14 days after application, scale 0-100 (0 no damage, 100 complete death)
From the text: as §1, §2, §3, §4, §5

[21] = tested on: field corn (Zea mays L., var. Dekalb 527, CORN); test: Pre-emerge greenhouse crop damage test
From the text: as §1, §2, §3, §4, §5

[22] = tested on: soybean (Glycine max L., var. Pella 86, SOY); test: Pre-emerge greenhouse crop damage test
From the text: as §1, §2, §3, §4, §5

[23] = tested on: upland rice (Ory0a sp., var.Tebonnet, RICE); test: Pre-emerge greenhouse crop damage test
From the text: as §1, §2, §3, §4, §5

[24] = 250 g ai/ha, post-emerge, 14 days after application
[25] = pre-emerge, 250 g ai/ha, 14 days after application, scale 0-100 (0 no damage, 100 complete death)
[26] = var. Dekalb 527, field corn (Zea mays L.), in vivo, 14 days
[27] = var. Pella 86, soybean (Glycine max L.), in vivo, 14 days
[28] = var. Tebonnet, upland rice (Ory0a sp.), in vivo, 14 days

CCc1nc2c(N3C(=O)C4CCCCN4C3=S)c(F)cc(Cl)c2o1 (single isomer, unassigned) [Compound 7-6, 8-(7-Chloro-2-ethyl-5-fluorobenzoxazol-4-yl)-1,8-diazobicyclo[4,3,0]nonane-7-one-9-thione]
Post-emerge Herbicidal Activity ECHCG (phytotoxicity rating 0-100) ([1]; 250 g ai/ha): 0 | Post-emerge Herbicidal Activity SETVI (phytotoxicity rating 0-100) ([2]; 250 g ai/ha): 10 | Post-emerge Herbicidal Activity IPOHE (phytotoxicity rating 0-100) ([3]; 250 g ai/ha): 70 | Post-emerge Herbicidal Activity CHEAL (phytotoxicity rating 0-100) ([4]; 250 g ai/ha): 60 | Post-emerge Herbicidal Activity DIGSA (phytotoxicity rating 0-100) ([5]; 250 g ai/ha): 0 | Post-emerge Herbicidal Activity AMARE (phytotoxicity rating 0-100) ([6]; 250 g ai/ha): 30 | Post-emerge Herbicidal Activity CASOB (phytotoxicity rating 0-100) ([7]; 250 g ai/ha): 30 | Post-emerge Herbicidal Activity ABUTH (phytotoxicity rating 0-100) ([8]; 250 g ai/ha): 90 | Post-emerge crop damage CORN (phytotoxicity rating 0-100) [9, 24]: 30 | Post-emerge crop damage SOY (phytotoxicity rating 0-100) ([10]; in vivo): 50 | Post-emerge crop damage RICE (phytotoxicity rating 0-100) [11, 24]: 10

Nn1c(C(F)(F)F)cc(=O)n(-c2c(F)cc(Cl)c3c2NC(=O)CO3)c1=O [Compound 4-2]
Pre-emerge Herbicidal Activity ECHCG (phytotoxicity rating) ([12]; 250 g ai/ha): 80 | Pre-emerge Herbicidal Activity SETVI (phytotoxicity rating) ([13]; 250 g ai/ha): 80 | Pre-emerge Herbicidal Activity IPOHE (phytotoxicity rating) ([14]; 250 g ai/ha): 100 | Pre-emerge Herbicidal Activity SORHA (phytotoxicity rating) [15]: 65 | Pre-emerge Herbicidal Activity CHEAL (phytotoxicity rating) ([16]; 250 g ai/ha): 100 | Pre-emerge Herbicidal Activity DIGSA (phytotoxicity rating) ([17]; 250 g ai/ha): 70 | Pre-emerge Herbicidal Activity AMARE (phytotoxicity rating) ([18]; 250 g ai/ha): 100 | Pre-emerge Herbicidal Activity CASOB (phytotoxicity rating) ([19]; 250 g ai/ha): 100 | Pre-emerge Herbicidal Activity ABUTH (phytotoxicity rating) ([20]; 250 g ai/ha): 100 | Pre-emerge Herbicidal Activity CORN (crop damage rating) [21, 25]: 100 | Pre-emerge Herbicidal Activity SOY (crop damage rating) [22, 25]: 95 | Pre-emerge Herbicidal Activity RICE (crop damage rating) ([23]; in vivo): 90 | Post-emerge Herbicidal Activity ECHCG (phytotoxicity rating 0-100) ([1]; 250 g ai/ha): 60 | Post-emerge Herbicidal Activity SETVI (phytotoxicity rating 0-100) ([2]; 250 g ai/ha): 40 | Post-emerge Herbicidal Activity IPOHE (phytotoxicity rating 0-100) ([3]; 250 g ai/ha): 100 | Post-emerge Herbicidal Activity CHEAL (phytotoxicity rating 0-100) ([4]; 250 g ai/ha): 100 | Post-emerge Herbicidal Activity DIGSA (phytotoxicity rating 0-100) ([5]; 250 g ai/ha): 20 | Post-emerge Herbicidal Activity AMARE (phytotoxicity rating 0-100) ([6]; 250 g ai/ha): 100 | Post-emerge Herbicidal Activity CASOB (phytotoxicity rating 0-100) ([7]; 250 g ai/ha): 90 | Post-emerge Herbicidal Activity ABUTH (phytotoxicity rating 0-100) ([8]; 250 g ai/ha): 100 | Post-emerge crop damage CORN (phytotoxicity rating 0-100) [9, 24]: 90 | Post-emerge crop damage SOY (phytotoxicity rating 0-100) [10, 24]: 100 | Post-emerge crop damage RICE (phytotoxicity rating 0-100) [11, 24]: 90

Cn1c(C(F)(F)F)cc(=O)n(-c2ccc(Cl)c3ccccc23)c1=O [Compound 5-1, 3-(4-Chloronaphthalen-1-yl)-1-methyl-6-trifluoromethyl-2,4(1H,3H)-pyrimidindione]
Pre-emerge Herbicidal Activity ECHCG (phytotoxicity rating) ([12]; 500 g ai/ha): 60 | Pre-emerge Herbicidal Activity SETVI (phytotoxicity rating) ([13]; 500 g ai/ha): 100 | Pre-emerge Herbicidal Activity IPOHE (phytotoxicity rating) ([14]; 500 g ai/ha): 60 | Pre-emerge Herbicidal Activity CHEAL (phytotoxicity rating) ([16]; 500 g ai/ha): 100 | Pre-emerge Herbicidal Activity DIGSA (phytotoxicity rating) ([17]; 500 g ai/ha): 98 | Pre-emerge Herbicidal Activity AMARE (phytotoxicity rating) ([18]; 500 g ai/ha): 100 | Pre-emerge Herbicidal Activity CASOB (phytotoxicity rating) ([19]; 500 g ai/ha): 60 | Pre-emerge Herbicidal Activity ABUTH (phytotoxicity rating) ([20]; 500 g ai/ha): 100 | Pre-emerge Herbicidal Activity CORN (crop damage rating) [21, 26]: 70 | Pre-emerge Herbicidal Activity SOY (crop damage rating) [22, 27]: 70 | Pre-emerge Herbicidal Activity RICE (crop damage rating) [23, 28]: 70 | Post-emerge Herbicidal Activity ECHCG (phytotoxicity rating 0-100) ([1]; 500 g ai/ha): 70 | Post-emerge Herbicidal Activity SETVI (phytotoxicity rating 0-100) ([2]; 500 g ai/ha): 100 | Post-emerge Herbicidal Activity IPOHE (phytotoxicity rating 0-100) ([3]; 500 g ai/ha): 60 | Post-emerge Herbicidal Activity CHEAL (phytotoxicity rating 0-100) ([4]; 500 g ai/ha): 100 | Post-emerge Herbicidal Activity DIGSA (phytotoxicity rating 0-100) ([5]; 500 g ai/ha): 60 | Post-emerge Herbicidal Activity AMARE (phytotoxicity rating 0-100) ([6]; 500 g ai/ha): 100 | Post-emerge Herbicidal Activity CASOB (phytotoxicity rating 0-100) ([7]; 500 g ai/ha): 60 | Post-emerge Herbicidal Activity ABUTH (phytotoxicity rating 0-100) ([8]; 500 g ai/ha): 100 | Post-emerge crop damage CORN (phytotoxicity rating 0-100) [9, 26]: 0 | Post-emerge crop damage SOY (phytotoxicity rating 0-100) [10, 27]: 0 | Post-emerge crop damage RICE (phytotoxicity rating 0-100) [11, 28]: 0

CCc1nc2c(N3C(=O)C4CCCCN4C3=O)c(F)cc(Cl)c2o1 (stereo not shown) [Compound 7-9]
Pre-emerge Herbicidal Activity ECHCG (phytotoxicity rating) ([12]; 250 g ai/ha): 10 | Pre-emerge Herbicidal Activity SETVI (phytotoxicity rating) ([13]; 250 g ai/ha): 40 | Pre-emerge Herbicidal Activity IPOHE (phytotoxicity rating) ([14]; 250 g ai/ha): 20 | Pre-emerge Herbicidal Activity CHEAL (phytotoxicity rating) ([16]; 250 g ai/ha): 100 | Pre-emerge Herbicidal Activity DIGSA (phytotoxicity rating) ([17]; 250 g ai/ha): 30 | Pre-emerge Herbicidal Activity AMARE (phytotoxicity rating) ([18]; 250 g ai/ha): 100 | Pre-emerge Herbicidal Activity CASOB (phytotoxicity rating) ([19]; 250 g ai/ha): 10 | Pre-emerge Herbicidal Activity ABUTH (phytotoxicity rating) ([20]; 250 g ai/ha): 50 | Pre-emerge Herbicidal Activity CORN (crop damage rating) [21, 25]: 0 | Pre-emerge Herbicidal Activity SOY (crop damage rating) [22, 25]: 15 | Pre-emerge Herbicidal Activity RICE (crop damage rating) [23, 25]: 10
